Key:
[1] = test system: Romaine lettuce (Lactuca sativa L.) plants; assay: Post-emergency herbicidal activity on Romaine lettuce plants; type: in vivo; conditions: Romaine lettuce at stage 2 to 3 leaves; compound in 0.1% Silwet, up to 0.5%; visual evaluation vs control plants
Procedure: The tests were performed on Romaine lettuce (Lactuca sativa L.) plants at the stage 2 to 3 leaves. The plants were grown on 300 well trays packed with soil, well dimensions 2×2×5 cm. Each compound was dissolved in 0.1% water solution of agronomically acceptable surfactant Silwet to final concentrations ranging from 0.0% (Control) to 0.5%. Two weeks after the treatment the herbicidal effects of the respective test material were visually evaluated by a comparison with the control plants. In addition, the aboveground part of the plant was neatly cut and weighed (wet weight). Each test was performed on 20 to 40 plants. The degree of growth inhibition and damage was evaluated according to the parameters in Table 2. Plant development at 7, 14, and 21 DAA (days after application) were evaluated on a scale of 0 to 100, in which score 0 represents dead plants and score 100 represents healthy plants according to plant vigor, height, and leaf color. Each test included 20 to 40 plants.

[2] = test system: Seeds of Lettuce R. (Super-Jericho); assay: Filter paper bioassay with lettuce seeds (germination and early plant development); type: in vivo; conditions: lettuce seeds on filter paper; 1, 0.1, 0.01, 0.001 mM; radicle and shoots assessed after 6 days
Procedure: Seeds of Lettuce R. (Super-Jericho, non-sterilized) were obtained from Ben Shahar Moshe Ltd., 99% purity.
Filter Paper Bioassays with Lettuce Seeds:
The protocol is following Bertin et al. 2009 and Movellan et al. 2014 with specified modifications as described below.
Seeds were placed on Whatman no. 1 filter paper (Whatman, Middlesex, U.K.) in Petri dishes (10 seeds per plate) supplemented with 2.0 ml of water (Control) or with a solution comprising 1 mM, 0.1 mM, 0.01 mM and 0.001 mM of test material. Petri dishes with seeds were placed in a tray at an angle of 45°. The trays were kept in dark for 48 hours and then transferred to the growth chamber (22° C., 0.045 mmol×m−2×s−1 photosynthetic photon flux density; 6/18 dark/light cycle) for additional 4 days. Each experiment was performed at least in two repeats. The development of radicle and shoots of experimental and control plants were visually assessed 6 days after the beginning of the test to determine Minimal Effective Concentration (MEC) of test material. In the context of the invention, MEC is defined as the lowest concentration level of a test material that caused deviation (absence of germination or malformation of radicle and shoots) from the plant's development in the Control group.

Compound | post-emergency herbicidal activity (Activity Index: plant's development vs Control) [1] | Minimal Effective Concentration (MEC) as activity score, seeds germination & early plants development [2]
CCOC(=O)C(CN(C(=O)O)S(=O)(=O)c1cc(Cl)sc1Cl)NC(=O)O (stereo not shown) [Code 526] | Weak (More than 75) | Weak (More than 1 mM)
NC(CNS(=O)(=O)c1cc(Cl)sc1Cl)C(=O)O (stereo not shown) [Code 514] | Weak (More than 75) | Weak (More than 1 mM)
CCCCOC(=O)C(Cc1nsc(Cl)n1)NC(C)=O (stereo not shown) [Code 595] | Strong (From 25 to 50) | Strong (0.1 mM)
CN(C)c1cc(CC(N)C(=O)O)ccn1 (stereo not shown) [Code 631] | Weak (More than 75) | Weak (More than 1 mM)
C[n+]1cccc(CC(N)C(=O)O)c1 (stereo not shown) [Code 667] | Weak (More than 75) | Weak (More than 1 mM)
COCCOCCOC(=O)C(N)Cc1ccsc1 (stereo not shown) [Code 570] | Very Strong (From 15 to 25) | Maximal (0.01 mM and less)
NC(CCc1cc[nH]c1)C(=O)O (stereo not shown) [Code 702] | Weak (More than 75) | Weak (More than 1 mM)
NC(Cc1nccc(O)n1)C(=O)O (stereo not shown) [Code 619] | Weak (More than 75) | Weak (More than 1 mM)
NC(Cc1ccnc(Br)c1Br)C(=O)O (stereo not shown) [Code 635] | Weak (More than 75) | Weak (More than 1 mM)
NC(Cc1ccncc1)C(=O)O (stereo not shown) [Code 602] | Moderate (From 50 to 75) | Strong (0.1 mM)
NC(CC(=O)O)c1cscc1Br (stereo not shown) [Code 511] | Weak (More than 75) | Weak (More than 1 mM)
N#Cc1cc(C[C@H](N)C(=O)O)cs1 [Code 509] | Maximal (Less than 15) | Strong (0.1 mM)
O=CNC(Cc1ccsc1)C(=O)O (stereo not shown) [Code 545] | Weak (More than 75) | Weak (More than 1 mM)
COC(=O)C(N)Cc1ccsc1 (stereo not shown) [Code 546] | Very Strong (From 15 to 25) | Maximal (0.01 mM and less)
NC(Cc1cncc(S)c1)C(=O)O (stereo not shown) [Code 612] | Weak (More than 75) | Weak (More than 1 mM)
NC(Cc1ccnnc1)C(=O)O (stereo not shown) [Code 601] | Weak (More than 75) | Weak (More than 1 mM)
NC(Cc1ncns1)C(=O)O (stereo not shown) [Code 532] | Moderate (From 50 to 75) | Strong (0.1 mM)
NC(Cc1csc(C(F)(F)F)c1)C(=O)O (stereo not shown) [Code 556] | Maximal (Less than 15) | Strong (0.1 mM)
N[C@@H](Cc1cncc(O)c1)C(=O)O [Code 605] | Weak (More than 75) | Weak (More than 1 mM)
NC(Cc1c[nH]c(=O)[nH]c1=O)C(=O)O (stereo not shown) [Code 620] | Weak (More than 75) | Weak (More than 1 mM)
CC1=CC(CC(N)C(=O)O)=C(C)S1(=O)=O (stereo not shown) [Code 564] | Weak (More than 75) | Weak (More than 1 mM)

Compound | post-emergency herbicidal activity (Activity Index: plant's development vs Control) [1] | Minimal Effective Concentration (MEC) as activity score, seeds germination & early plants development [2]
NC(Cc1cc[nH]c1)C(=O)O (stereo not shown) [Code 704] | Weak (More than 75) | Weak (More than 1 mM)
COC(=O)C(N)Cc1ccnc(Br)c1 (stereo not shown) [Code 666] | Maximal (Less than 15) | Strong (0.1 mM)
Cl.Cl.NC(Cc1cccnc1)C(=O)O (stereo not shown) [Code 603] | Strong (From 25 to 50) | Strong (0.1 mM)
NC(Cc1cc(Br)nc(Br)c1)C(=O)O (stereo not shown) [Code 634] | Very Strong (From 15 to 25) | Strong (0.1 mM)
Cc1cncc(CC(N)C(=O)O)c1 (stereo not shown) [Code 606] | Weak (More than 75) | Weak (More than 1 mM)
NC(Cc1cncc(Cl)c1)C(=O)O (stereo not shown) [Code 622] | Moderate (From 50 to 75) | Strong (0.1 mM)
NC(Cc1cncnc1)C(=O)O (stereo not shown) [Code 614] | Weak (More than 75) | Weak (More than 1 mM)
NC(Cc1nc(Cl)sc1Cl)C(=O)O (stereo not shown) [Code 527] | Maximal (Less than 15) | Moderate (1 mM)
COC(=O)C(N)CNS(=O)(=O)c1cc(Cl)sc1Cl (stereo not shown) [Code 523] | Weak (More than 75) | Weak (More than 1 mM)
NC(Cc1ccsc1Cl)C(=O)O (stereo not shown) [Code 516] | Maximal (Less than 15) | Maximal (0.01 mM and less)
NC(Cc1cncc(F)c1)C(=O)O (stereo not shown) [Code 626] | Strong (From 25 to 50) | Strong (0.1 mM)
NC(Cc1c(F)cnc(Br)c1F)C(=O)O (stereo not shown) [Code 655] | Maximal (Less than 15) | Strong (0.1 mM)
NC(CNS(=O)(=O)c1ccsc1)C(=O)O (stereo not shown) [Code 504] | Weak (More than 75) | Weak (More than 1 mM)
NC(Cc1ccoc1)C(=O)O (stereo not shown) [Code 534] | Strong (From 25 to 50) | Moderate (1 mM)
NC(Cc1ccsc1)C(=O)O (stereo not shown) [Code 502] | Very Strong (From 15 to 25) | Maximal (0.01 mM and less)
NC(Cc1cc(=O)[nH]c(=O)[nH]1)C(=O)O (stereo not shown) [Code 652] | Weak (More than 75) | Weak (More than 1 mM)
COC(=O)C(N)CNS(=O)(=O)c1ccsc1 (stereo not shown) [Code 507] | Weak (More than 75) | Weak (More than 1 mM)
CCOC(=O)C(Cc1cc(Cl)sc1Cl)NC(C)=O (stereo not shown) [Code 573] | Maximal (Less than 15) | Strong (0.1 mM)
CCCOC(=O)C(N)Cc1c(F)cnc(Br)c1F (stereo not shown) [Code 656] | Very Strong (From 15 to 25) | Strong (0.1 mM)
NC(CC1=NCSC1)C(=O)O (stereo not shown) [Code 519] | Moderate (From 50 to 75) | Maximal (0.01 mM and less)
